Where “and” joins values, the source holds several entries; their conditions need not be identical. Identical values can stand only once. Toxic doses and inconclusive results are not listed. *1 amine or outer side, *2 acyl side, *3 side chain or, on linkers, in order; H or OH if unused. Where a SMILES comes first, the peptide text is derived from it. Bridges are numbered along the chain shown (N, C = ends). Roman numbers before positions name the chains, in order. [ ]: non-standard residue; d: D form. Actinocin(9to1) = Cc1c2oc3c(C)ccc(C(=O)[*:1])c3nc-2c(C(=O)[*:2])c(N)c1=O; aThr = C[C@H](O)[C@H](N)C(=O)O; NMeV = CN[C@H](C(=O)O)C(C)C; Sar = CNCC(=O)O
Test system: BDF1 mice, P388/VCR leukemia ip, median survival T/C
Assay: NCI In Vivo Anticancer Drug Screen. Data for tumor model P388 Leukemia resistant to Vincristine; NSC 67574 (intraperitoneal) in B6D2F1 (BDF1) mice
Conditions: endpoint: median survival time, higher = longer survival
Experimental: The antitumor activity of compounds was measured in mice bearing transplantable tumors. Survival or tumor size were measured and the results are expressed as the measurement made in the treated group (T) divided by the measurement made in the vehicle treated control group (C). The tumor model used in this assay is P388 Leukemia resistant to Vincristine; NSC 67574 (intraperitoneal) in B6D2F1 (BDF1) mice

[1] = dose: 250.0 mg/kg/injection, schedule: Q01DX010 (ip), vehicle: saline

`NC(C/[N+]([O-])=N/O)C(=O)O` (configuration not stated) was tested. Which T/C (dose: 173.0 mg/kg/injection, schedule: Q04DX003 (ip), vehicle: sodium bicarbonate) did it give?
The T/C was 157 % of control.

What about the T/C (dose: 288.0 mg/kg/injection, schedule: Q04DX003 (ip), vehicle: sodium bicarbonate) of the same molecule?
Its T/C is 179 % of control.

And the T/C (dose: 480.0 mg/kg/injection, schedule: Q04DX003 (ip), vehicle: sodium bicarbonate)?
The T/C was 181 % of control.

What about the T/C (dose: 800.0 mg/kg/injection, schedule: Q04DX003 (ip), vehicle: sodium bicarbonate) of the same molecule?
Its T/C is 118 % of control.

With `O=C(Nc1ccc(C2=NCCN2)cc1)Nc1cccc(NC(=O)Nc2ccc(C3=NCCN3)cc2)c1` as the molecule, how does the T/C (dose: 60.0 mg/kg/injection, schedule: Q01DX010 (ip), vehicle: saline) read?
The T/C was 179 % of control and 183 % of control.

And the T/C (dose: 120.0 mg/kg/injection, schedule: Q01DX010 (ip), vehicle: saline)?
Its T/C is 241 % of control and 279 % of control.

And the T/C (dose: 480.0 mg/kg/injection, schedule: Q01DX010 (ip), vehicle: saline)?
The T/C was 108 % of control and 116 % of control.

Which results are given for `CCCSc1ncnc2nc[nH]c12`?
T/C (dose: 31.3 mg/kg/injection, schedule: Q01DX010 (ip), vehicle: saline): 95 % of control; T/C (dose: 62.5 mg/kg/injection, schedule: Q01DX010 (ip), vehicle: saline): 95 % of control; T/C (dose: 125.0 mg/kg/injection, schedule: Q01DX010 (ip), vehicle: saline): 88 % of control and 95 % of control; T/C [1]: 95 % of control

`O=C[C@@H](CO)O[C@H](C=O)n1cnc2c(=O)[nH]cnc21` was tested. Which T/C (dose: 180.0 mg/kg/injection, schedule: Q04DX003 (ip), vehicle: water) did it give?
The T/C was 210 % of control.

What about the T/C (dose: 300.0 mg/kg/injection, schedule: Q04DX003 (ip), vehicle: water) of the same molecule?
Its T/C is 323 % of control.

Which T/C (dose: 7.48 mg/kg/injection, schedule: Q04DX003 (ip), vehicle: other) does the source give for `COc1cc([C@@H]2c3cc4c(cc3[C@@H](OC3OC5COC(C)OC5C(O)C3O)[C@H]3COC(=O)[C@H]23)OCO4)cc(OC)c1O` (some centres not stated) here?
The T/C was 274 % of control.

What about the T/C (dose: 12.5 mg/kg/injection, schedule: Q04DX003 (ip), vehicle: other) of the same molecule?
Its T/C is 250 % of control.

What about the T/C (dose: 20.8 mg/kg/injection, schedule: Q04DX003 (ip), vehicle: other) of the same molecule?
The T/C was 307 % of control.

And the T/C (dose: 34.6 mg/kg/injection, schedule: Q04DX003 (ip), vehicle: other)?
Its T/C is 340 % of control.

Which results are given for `O=C(Nc1ccc(C2=NCCCN2)cc1)c1ccc(C(=O)Nc2ccc(C3=NCCCN3)cc2)cc1`?
T/C (dose: 20.0 mg/kg/injection, schedule: Q04DX003 (ip), vehicle: Klucel (hydroxypropylcellulose) (HPC)): 158 % of control; T/C (dose: 33.3 mg/kg/injection, schedule: Q04DX003 (ip), vehicle: Klucel (hydroxypropylcellulose) (HPC)): 101 % of control

For `COC(=O)C[C@](O)(CCCC(C)(C)O)C(=O)O[C@@H]1C(OC)=C[C@]23CCCN2CCc2cc4c(cc2[C@H]13)OCO4`, which T/C (dose: 0.72 mg/kg/injection, schedule: Q04DX003 (ip), vehicle: acid diluted with saline) is on record?
Its T/C is 100 % of control.

And the T/C (dose: 1.2 mg/kg/injection, schedule: Q04DX003 (ip), vehicle: acid diluted with saline)?
Its T/C is 100 % of control.

And the T/C (dose: 2.0 mg/kg/injection, schedule: Q04DX003 (ip), vehicle: acid diluted with saline)?
The T/C was 98 % of control.

What about the T/C (dose: 3.33 mg/kg/injection, schedule: Q04DX003 (ip), vehicle: acid diluted with saline) of the same molecule?
Its T/C is 97 % of control.

Which results are given for `CC[C@](O)(C(=O)O)c1cc2n(c(=O)c1CO)Cc1cc3ccccc3nc1-2`?
T/C (dose: 14.4 mg/kg/injection, schedule: Q04DX003 (ip), vehicle: saline): 155 % of control; T/C (dose: 24.0 mg/kg/injection, schedule: Q04DX003 (ip), vehicle: saline): 180 % of control; T/C (dose: 40.0 mg/kg/injection, schedule: Q04DX003 (ip), vehicle: saline): 102 % of control; T/C (dose: 66.7 mg/kg/injection, schedule: Q04DX003 (ip), vehicle: saline): 161 % of control

With `O=P1(N(CCCl)CCCl)NCCCO1` (configuration not stated) as the molecule, how does the T/C (dose: 144.0 mg/kg/injection, schedule: Q01DX001 (ip), vehicle: saline) read?
The T/C was 181 % of control.

What about the T/C (dose: 240.0 mg/kg/injection, schedule: Q01DX001 (ip), vehicle: saline) of the same molecule?
Its T/C is 194 % of control.

Which results are given for `CC1CN1P(=S)(N1CC1C)N1CC1C` (configuration not stated)?
T/C (dose: 1.25 mg/kg/injection, schedule: Q01DX010 (ip), vehicle: saline): 93 % of control; T/C (dose: 2.5 mg/kg/injection, schedule: Q01DX010 (ip), vehicle: saline): 96 % of control and 100 % of control; T/C (dose: 5.0 mg/kg/injection, schedule: Q01DX010 (ip), vehicle: saline): 100 % of control; T/C (dose: 10.0 mg/kg/injection, schedule: Q01DX010 (ip), vehicle: saline): 93 % of control and 107 % of control

For `CC(=O)c1cccc(NC2C(N)C(NC(=O)N(C)C)(C(C)O)C(C)(O)C2(O)COC(=O)c2c(C)cccc2O)c1` (configuration not stated), which T/C (dose: 5.4 mg/kg/injection, schedule: Q04DX003 (ip), vehicle: alkali diluted with saline) is on record?
The T/C was 98 % of control.

What about the T/C (dose: 9.0 mg/kg/injection, schedule: Q04DX003 (ip), vehicle: alkali diluted with saline) of the same molecule?
Its T/C is 98 % of control.

What about the T/C (dose: 15.0 mg/kg/injection, schedule: Q04DX003 (ip), vehicle: alkali diluted with saline) of the same molecule?
Its T/C is 100 % of control.

How did the T/C (dose: 3.6 mg/kg/injection, schedule: Q04DX003 (ip), vehicle: water) turn out when `COc1cccc2c1C(=O)c1c(O)c3c(c(O)c1C2=O)C[C@@](O)(C(C)=O)C[C@@H]3OC1CC(N)C(O)C(C)O1` (some centres not stated) was run?
The T/C was 110 % of control.

And the T/C (dose: 6.0 mg/kg/injection, schedule: Q04DX003 (ip), vehicle: water)?
Its T/C is 104 % of control.

And the T/C (dose: 8.0 mg/kg/injection, schedule: Q04DX003 (ip), vehicle: water)?
Its T/C is 114 % of control.

Which results are given for `COc1cc2cc3c4cc(OC)c(OC)cc4cc[n+]3c(C)c2cc1OC` (tested in a mixture with another compound)?
T/C (dose: 46.7 mg/kg/injection, schedule: Q04DX003 (ip), vehicle: alkali diluted with saline): 106 % of control; T/C (dose: 77.8 mg/kg/injection, schedule: Q04DX003 (ip), vehicle: alkali diluted with saline): 110 % of control; T/C (dose: 130.0 mg/kg/injection, schedule: Q04DX003 (ip), vehicle: alkali diluted with saline): 115 % of control; T/C (dose: 216.0 mg/kg/injection, schedule: Q04DX003 (ip), vehicle: alkali diluted with saline): 124 % of control

With `CN=C(NC)c1ccc(NC(=O)Nc2ccc(NC(=O)Nc3ccc(C(=NC)NC)cc3)cc2)cc1` as the molecule, how does the T/C (dose: 13.3 mg/kg/injection, schedule: Q01DX010 (ip), vehicle: saline) read?
Its T/C is 150 % of control.

What about the T/C (dose: 20.0 mg/kg/injection, schedule: Q01DX010 (ip), vehicle: saline) of the same molecule?
The T/C was 100 % of control.

What about the T/C (dose: 30.0 mg/kg/injection, schedule: Q01DX010 (ip), vehicle: saline) of the same molecule?
The T/C was 504 % of control.

What does the source list for `Nc1ncnc2[nH]ncc12`?
T/C (dose: 1.5 mg/kg/injection, schedule: Q01DX010 (ip), vehicle: saline): 88 % of control; T/C (dose: 3.0 mg/kg/injection, schedule: Q01DX010 (ip), vehicle: saline): 88 % of control; T/C (dose: 6.0 mg/kg/injection, schedule: Q01DX010 (ip), vehicle: saline): 88 % of control and 103 % of control; T/C (dose: 12.0 mg/kg/injection, schedule: Q01DX010 (ip), vehicle: saline): 119 % of control

`Cc1c2oc3c(C)ccc(C(=O)N[C@@H]4C(=O)N[C@H](C(C)C)C(=O)N5CCC[C@H]5C(=O)N(C)CC(=O)N(C)[C@@H](C(C)C)C(=O)O[C@H]4C)c3nc-2c(C(=O)N[C@@H]2C(=O)N[C@H](C(C)C)C(=O)N3CCC[C@H]3C(=O)N(C)CC(=O)N(C)[C@@H](C(C)C)C(=O)O[C@H]2C)c(N)c1=O` (I: [aThr][dV]P[Sar][NMeV] / II: [aThr][dV]P[Sar][NMeV]; ester I:1-I:C, II:1-II:C; linker I:N-II:N via Actinocin(9to1)) was tested. Which T/C (dose: 12.5 micrograms/kg/injection, schedule: Q01DX010 (ip), vehicle: other) did it give?
The T/C was 108 % of control and 112 % of control.

And the T/C (dose: 25.0 micrograms/kg/injection, schedule: Q01DX010 (ip), vehicle: other)?
The T/C was 124 % of control.

What about the T/C (dose: 108.0 micrograms/kg/injection, schedule: Q04DX003 (ip), vehicle: saline + alcohol) of the same molecule?
The T/C was 103 % of control.

And the T/C (dose: 180.0 micrograms/kg/injection, schedule: Q04DX003 (ip), vehicle: saline + alcohol)?
Its T/C is 110 % of control.

What about the T/C (dose: 300.0 micrograms/kg/injection, schedule: Q04DX003 (ip), vehicle: saline + alcohol) of the same molecule?
Its T/C is 106 % of control.

What about the T/C (dose: 500.0 micrograms/kg/injection, schedule: Q04DX003 (ip), vehicle: saline + alcohol) of the same molecule?
Its T/C is 93 % of control.

Which T/C (dose: 0.5 mg/kg/injection, schedule: Q01DX010 (ip), vehicle: saline) does the source give for `CS(=O)(=O)OCCN(CCOS(C)(=O)=O)c1ccc(N=O)cc1` here?
The T/C was 150 % of control.

And the T/C (dose: 1.0 mg/kg/injection, schedule: Q01DX010 (ip), vehicle: saline)?
The T/C was 150 % of control.

Which results are given for `CN(C)/N=N/c1nc[nH]c1C(N)=O`?
T/C (dose: 25.0 mg/kg/injection, schedule: Q01DX010 (ip), vehicle: saline): 100 % of control and 116 % of control; T/C (dose: 50.0 mg/kg/injection, schedule: Q01DX010 (ip), vehicle: saline): 107 % of control; T/C (dose: 200.0 mg/kg/injection, schedule: Q01DX010 (ip), vehicle: saline): 107 % of control and 116 % of control

For `O=C(O)CCCc1ccc(N(CCCl)CCCl)cc1`, which T/C (dose: 3.13 mg/kg/injection, schedule: Q01DX010 (ip), vehicle: saline) is on record?
Its T/C is 92 % of control and 104 % of control.

What about the T/C (dose: 6.25 mg/kg/injection, schedule: Q01DX010 (ip), vehicle: saline) of the same molecule?
Its T/C is 100 % of control.

And the T/C (dose: 12.5 mg/kg/injection, schedule: Q01DX010 (ip), vehicle: saline)?
Its T/C is 152 % of control.

How did the T/C (dose: 112.0 mg/kg/injection, schedule: Q01DX010 (ip), vehicle: saline) turn out when `O=C(Nc1ccc(C2=NCCN2)cc1)c1ccc(C(=O)Nc2ccc(C3=NCCN3)cc2)cc1` was run?
Its T/C is 156 % of control.

What about the T/C (dose: 167.0 mg/kg/injection, schedule: Q01DX010 (ip), vehicle: saline) of the same molecule?
Its T/C is 173 % of control.

What about the T/C [1] of the same molecule?
Its T/C is 178 % of control.
